Assays:
L1210 [1] = assay: Antitumor activity against mouse L1210 cells implanted in CDF1 mouse assessed as median survival time at 25.6 mg/kg, ip single dose on day 1; type: functional; conditions: route intraperitoneal
L1210 [2] = assay: Antitumor activity against mouse L1210 cells implanted in CDF1 mouse assessed as median survival time at 12.8 mg/kg, ip single dose on day 1; type: functional; conditions: route intraperitoneal
L1210 [3] = assay: Antitumor activity against mouse L1210 cells implanted in CDF1 mouse assessed as median survival time at 6.4 mg/kg, ip single dose on day 1; type: functional; conditions: route intraperitoneal
L1210 [4] = assay: Antitumor activity against mouse L1210 cells implanted in CDF1 mouse assessed as median survival time at 3.2 mg/kg, ip single dose on day 1; type: functional; conditions: route intraperitoneal
L1210 [5] = assay: Antitumor activity against mouse L1210 cells implanted in CDF1 mouse assessed as median survival time at 1.6 mg/kg, ip single dose on day 1; type: functional; conditions: route intraperitoneal
L1210 [6] = assay: Antitumor activity against mouse L1210 cells implanted in CDF1 mouse assessed as median survival time at 0.8 mg/kg, ip single dose on day 1; type: functional; conditions: route intraperitoneal
L1210 [7] = assay: Antitumor activity against mouse L1210 cells implanted in CDF1 mouse assessed as median survival time at 0.4 mg/kg, ip single dose on day 1; type: functional; conditions: route intraperitoneal
L1210 [8] = assay: Antitumor activity against mouse L1210 cells implanted in CDF1 mouse assessed as median survival time at 0.2 mg/kg, ip single dose on day 1; type: functional; conditions: route intraperitoneal
L1210 [9] = assay: Antitumor activity against mouse L1210 cells implanted in CDF1 mouse assessed as median survival time at 6.4 mg/kg, ip qd for 1 to 5 days; type: functional; conditions: route intraperitoneal
L1210 [10] = assay: Antitumor activity against mouse L1210 cells implanted in CDF1 mouse assessed as median survival time at 3.2 mg/kg, ip qd for 1 to 5 days; type: functional; conditions: route intraperitoneal
L1210 [11] = assay: Antitumor activity against mouse L1210 cells implanted in CDF1 mouse assessed as median survival time at 1.6 mg/kg, ip qd for 1 to 5 days; type: functional; conditions: route intraperitoneal
L1210 [12] = assay: Antitumor activity against mouse L1210 cells implanted in CDF1 mouse assessed as median survival time at 0.8 mg/kg, ip qd for 1 to 5 days; type: functional; conditions: route intraperitoneal
L1210 [13] = assay: Antitumor activity against mouse L1210 cells implanted in CDF1 mouse assessed as median survival time at 0.4 mg/kg, ip qd for 1 to 5 days; type: functional; conditions: route intraperitoneal
L1210 [14] = assay: Antitumor activity against mouse L1210 cells implanted in CDF1 mouse assessed as median survival time at 0.2 mg/kg, ip qd for 1 to 5 days; type: functional; conditions: route intraperitoneal
L1210 [15] = assay: Antitumor activity against mouse L1210 cells implanted in CDF1 mouse at 25.6 mg/kg, ip single dose on day 1 relative to control; type: functional; conditions: route intraperitoneal
L1210 [16] = assay: Antitumor activity against mouse L1210 cells implanted in CDF1 mouse at 12.8 mg/kg, ip single dose on day 1 relative to control; type: functional; conditions: route intraperitoneal
L1210 [17] = assay: Antitumor activity against mouse L1210 cells implanted in CDF1 mouse at 6.4 mg/kg, ip single dose on day 1 relative to control; type: functional; conditions: route intraperitoneal
L1210 [18] = assay: Antitumor activity against mouse L1210 cells implanted in CDF1 mouse at 3.2 mg/kg, ip single dose on day 1 relative to control; type: functional; conditions: route intraperitoneal
L1210 [19] = assay: Antitumor activity against mouse L1210 cells implanted in CDF1 mouse at 1.6 mg/kg, ip single dose on day 1 relative to control; type: functional; conditions: route intraperitoneal
L1210 [20] = assay: Antitumor activity against mouse L1210 cells implanted in CDF1 mouse at 0.8 mg/kg, ip single dose on day 1 relative to control; type: functional; conditions: route intraperitoneal
L1210 [21] = assay: Antitumor activity against mouse L1210 cells implanted in CDF1 mouse at 0.4 mg/kg, ip single dose on day 1 relative to control; type: functional; conditions: route intraperitoneal
L1210 [22] = assay: Antitumor activity against mouse L1210 cells implanted in CDF1 mouse at 0.2 mg/kg, ip single dose on day 1 relative to control; type: functional; conditions: route intraperitoneal
L1210 [23] = assay: Antitumor activity against mouse L1210 cells implanted in CDF1 mouse at 6.4 mg/kg, ip qd for 1 to 5 days relative to control; type: functional; conditions: route intraperitoneal
L1210 [24] = assay: Antitumor activity against mouse L1210 cells implanted in CDF1 mouse at 3.2 mg/kg, ip qd for 1 to 5 days relative to control; type: functional; conditions: route intraperitoneal
L1210 [25] = assay: Antitumor activity against mouse L1210 cells implanted in CDF1 mouse at 1.6 mg/kg, ip qd for 1 to 5 days relative to control; type: functional; conditions: route intraperitoneal
L1210 [26] = assay: Antitumor activity against mouse L1210 cells implanted in CDF1 mouse at 0.8 mg/kg, ip qd for 1 to 5 days relative to control; type: functional; conditions: route intraperitoneal
L1210 [27] = assay: Antitumor activity against mouse L1210 cells implanted in CDF1 mouse at 0.4 mg/kg, ip qd for 1 to 5 days relative to control; type: functional; conditions: route intraperitoneal
Mus musculus = assay: Toxicity in mouse L1210 cells implanted CDF1 mouse assessed as average weight gain at 25.6 mg/kg, ip single dose on day 1; type: organism-based; parameters: dose 25.6 mg/kg, route intraperitoneal; conditions: in vivo

CC[C@@]1(O)C[C@H](O[C@H]2C[C@H](NC)[C@H](O[C@H]3C[C@H](O)[C@H](O)[C@H](C)O3)[C@H](C)O2)c2c(cc3c(c2O)C(=O)c2c(O)ccc(O)c2C3=O)[C@H]1C(=O)OC [SCHAUNARDIMYCIN]
MST (L1210 [1]): 8 days
MST (L1210 [2]): 8 days
MST (L1210 [3]): 7 days
MST (L1210 [4]): 7 days
MST (L1210 [5]): 6.5 days
MST (L1210 [6]): 6 days
MST (L1210 [7]): 6 days
MST (L1210 [8]): 6 days
MST (L1210 [9]): 8 days
MST (L1210 [10]): 8 days
MST (L1210 [11]): 7.5 days
MST (L1210 [12]): 7 days
MST (L1210 [13]): 7 days
MST (L1210 [14]): 7 days
T/C (L1210 [15]): 133%
T/C (L1210 [16]): 133%
T/C (L1210 [17]): 117%
T/C (L1210 [18]): 117%
T/C (L1210 [19]): 108%
T/C (L1210 [20]): 100%
T/C (L1210 [21]): 100%
T/C (L1210 [22]): 100%
T/C (L1210 [23]): 133%
T/C (L1210 [24]): 133%
T/C (L1210 [25]): 125%
T/C (L1210 [26]): 117%
T/C (L1210 [27]): 117%
Activity (Mus musculus): -1.4 g

Source: ChEMBL document CHEMBL1148995, “Antitumor agents from bohemic acid complex, VI. Schaunardimycin” (J Nat Prod, 1984)
